Measured values from patent US20070161807A1, “Method for manufacturing optically pure coumaryl amino acids and the novel coumaryl aminoacids thus obtained” (INSERM (INSTITUT NATIONAL DE LA SANT'E ET DE LA RECHERCHE …, priority 2004, published 2007).

Experiment: Physicochemical properties: absorption and fluorescence (Table 1)
Details: for Abs. (nm): absorption wavelength; for Abs. (nm) / Em. (nm): determined in 95% ethanol; for Em. (nm): emission wavelength

Row | SMILES | QY quantum yield | ε (cm^−1 M^−1) extinction coefficient | Abs. (nm) | Em. (nm)
1 | N[C@@H](Cc1cc(=O)oc2cc(O)ccc12)C(=O)O.O=C(O)C(F)(F)F [Example 6, (1S)-1-carboxy-2-(7-hydroxy-2-oxo-2H-chromen-4-yl)-ethyl ammonium trifluoroacetate] | 0.49 | 9000 cm⁻¹ M⁻¹ | 329 nm | 464 nm
2 | COc1ccc2c(C[C@H](N)C(=O)O)cc(=O)oc2c1.CS(=O)(=O)O [Example 7, (1S)-1-carboxy-2-(7-methoxy-2-oxo-2H-chromen-4-yl)-ethyl ammonium methanesulfonate] | 0.18 | 12000 cm⁻¹ M⁻¹ | 324 nm | 383 nm
3 | COc1ccc2c(C[C@@H](N)C(=O)O)cc(=O)oc2c1.O=C(O)C(F)(F)F [Example 8, (1R)-1-carboxy-2-(7-methoxy-2-oxo-2H-chromen-4-yl)-ethyl ammonium trifluoroacetate] | 0.15 | 14000 cm⁻¹ M⁻¹ | 323 nm | 386 nm
4 | COc1cc2oc(=O)cc(C[C@H](N)C(=O)O)c2cc1OC.O=C(O)C(F)(F)F [Example 9, (1S)-1-carboxy-2-(6,7-dimethoxy-2-oxo-2H-chromen-4-yl)-ethyl ammonium trifluoroacetate] | 0.60 | 12000 cm⁻¹ M⁻¹ | 345 nm | 445 nm
5 | N[C@@H](Cc1cc(=O)oc2cc(O)c(Cl)cc12)C(=O)O.O=C(O)C(F)(F)F [Example 10, (1S)-1-carboxy-2-(6-chloro, 7-hydroxy-2-oxo-2H-chromen-4-yl)-ethyl ammonium trifluoroacetate] | 0.54 | 10300 cm⁻¹ M⁻¹ | 331 nm | 465 nm
6 | CCOc1ccc2c(C[C@H](N)C(=O)O)cc(=O)oc2c1.O=C(O)C(F)(F)F [Example 11, (1S)-1-carboxy-2-(7-ethoxy-2-oxo-2H-chromen-4-yl)-ethyl ammonium trifluoroacetate] | 0.17 | 13300 cm⁻¹ M⁻¹ | 325 nm | 387 nm
7 | COc1cc(O)c2c(C[C@H](N)C(=O)O)cc(=O)oc2c1.O=C(O)C(F)(F)F [Example 12, (1S)-1-carboxy-2-(5-hydroxy, 7-methoxy-2-oxo-2H-chromen-4-yl)-ethyl ammonium trifluoroacetate] | 0.50 | 6800 cm⁻¹ M⁻¹ | 329 nm | 421 nm
8 | N[C@@H](Cc1c[nH]c2ccccc12)C(=O)O [W, tryptophan, reference compound] | 0.12 | 5300 cm⁻¹ M⁻¹ | 278 nm | 352 nm

Now from value to compound:

Row | QY quantum yield | ε (cm^−1 M^−1) extinction coefficient | Abs. (nm) | Em. (nm) | SMILES
9 | 0.18 | 12700 cm⁻¹ M⁻¹ | 323 nm | 421 nm | COc1cc(O)cc2oc(=O)cc(C[C@H](N)C(=O)O)c12.O=C(O)C(F)(F)F [Example 13, (1S)-1-carboxy-2-(7-hydroxy, 5-methoxy-2-oxo-2H-chromen-4-yl)-ethyl ammonium trifluoroacetate]
10 | 0.39 | 11500 cm⁻¹ M⁻¹ | 324 nm | 419 nm | COc1cc(OC)c2c(C[C@H](N)C(=O)O)cc(=O)oc2c1.O=C(O)C(F)(F)F [Example 14, (1S)-1-carboxy-2-(5,7-dimethoxy-2-oxo-2H-chromen-4-yl)-ethyl ammonium trifluoroacetate]
11 |  | 11800 cm⁻¹ M⁻¹ | 327 nm | 463 nm | N[C@@H](Cc1cc(=O)oc2cc(O)cc(O)c12)C(=O)O.O=C(O)C(F)(F)F [Example 15, (1S)-1-carboxy-2-(5,7-dihydroxy-2-oxo-2H-chromen-4-yl)-ethyl ammonium trifluoroacetate]
12 | 0.21 | 12500 cm⁻¹ M⁻¹ | 321 nm | 380 nm | COc1ccc2c(CC[C@H](N)C(=O)O)cc(=O)oc2c1.O=C(O)C(F)(F)F [Example 16, (1S)-1-carboxy-3-(7-methoxy-2-oxo-2H-chromen-4-yl)-propyl ammonium trifluoroacetate]
13 | 0.17 | 14600 cm⁻¹ M⁻¹ | 322 nm | 381 nm | COc1ccc2c(CC[C@H](N)C(=O)OCc3ccccc3)cc(=O)oc2c1.O=C(O)C(F)(F)F [Example 17, (1S)-1-benzyloxycarbonyl-3-(7-methoxy-2-oxo-2H-chromen-4-yl)-propyl ammonium trifluoroacetate]
14 | 0.13 | 1400 cm⁻¹ M⁻¹ | 274 nm | 303 nm | N[C@@H](Cc1ccc(O)cc1)C(=O)O [Y, tyrosine, reference compound]
